Values quoted from earlier work in PMC3389233 (Bioorganic & medicinal chemistry, 2012).
Where two headings read alike, the source gives them in different places.

Molecular target: HPPK

Structure (SMILES) | Kd (MgATP binding to the enzyme first) [µM] | Kd (rapid addition of HP after MgATP binding)
Nc1ncnc2c1ncn2[C@@H]1O[C@H](COP(=O)(O)OP(=O)(O)OP(=O)(O)O)[C@@H](O)[C@H]1O [MgATP] | 2.6 to 4.5 | –
Nc1nc2c(c(=O)[nH]1)N=C(CO)CN2 [HP, 6-hydroxymethyl-7,8-dihydropterin] | – | sub-µM range
